Assay results taken from patent US6630472B1, “Compounds, pharmaceutical compositions, and methods for stimulating neuronal growth and elongation” (priority 1998, dated 2003).

tested on: not given; assay: not given; settings: not given

Row | Compound | melting point
1 | COc1cc(C(=O)C(=O)N2C3CCCC2C(=O)N(CCCCc2ccccc2)C3=O)cc(OC)c1OC | 101 to 103 °C

molecular target: FKBP12 (Homo sapiens, UniProt P62942); assay: rotamase inhibition assay (N-succinyl-Ala-Ala-Pro-Phe-p-nitroanilide, chymotrypsin-coupled); format: biochemical; settings: @ 2.5 μM
Sequence (P62942 whole entry, species assumed): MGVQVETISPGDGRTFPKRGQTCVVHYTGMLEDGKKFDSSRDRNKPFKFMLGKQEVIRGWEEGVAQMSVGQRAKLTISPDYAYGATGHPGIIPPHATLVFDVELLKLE
Method: In the rotamase inhibition assay, isomerization of an artificial substrate N-succinyl-Ala-Ala-Pro-Phe-p-nitroanilide is followed spectrophotometrically. The assay includes the cis form of the substrate, FKBP12, the compound being tested, and chymotrypsin. Chymotrypsin is able to cleave p-nitroaniline from the trans form of the substrate, but not from the cis form. Release of p-nitroaniline is measured spectrophotometrically. Using this assay, various amounts of the FKBP rotamase-inhibiting compounds of formula (I-a) or (I-b) were added to cis-N-succinyl-alanine-alanine-proline-phenylalanine-para-nitroaniline (Bachem, 3132 Kashiwa Street, Torrance, Calif. 90505) in the presence of FKBP12 and chymotrypsin. Spectrophotometric measurements of p-nitroaniline concentrations allowed estimation of the apparent Ki values, which are provided in Table 1 below.

Row | Compound | inhibition at 2.5 µM
2 | CCCC(CCC)C(=O)OC[C@H](CN1CC2CCCC(C1=O)N2C(=O)C(=O)C(C)(C)CC)OCc1ccccc1 (stereo partly shown) [Compound 56] | 40%

same assay, conditions: apparent Ki; NI = no inhibition at the concentrations tested; read-out: Rotamase Ki(app)

Row | Ki | Compound
3 | 2500 nM | COC[C@@H]1CC[C@@H](C)[C@](O)(C(=O)C(=O)N2C3CCCC2C(=O)N(CCCCc2ccccc2)C3)C1 (stereo partly shown) [Compound 120]
4 | 244 nM | C=CCC(CC=C)C(=O)OC[C@@H]1CC[C@H](N2CC3CCCC(C2=O)N3C(=O)C(=O)c2cc(OC)c(OC)c(OC)c2)C1 (stereo partly shown) [Compound 154]
5 | > 20000 nM | COC(CN1C[C@@H]2[C@H]3CCC[C@@H](C(=O)N2CC1=O)N3C(=O)C(=O)C1(OC)CCCC1)OC [Compound 115]
6 | 520 nM | COc1ccc(OC[C@@H]2CC[C@H](N3CC4CCCC(C3=O)N4C(=O)C(=O)c3cc(OC)c(OC)c(OC)c3)C2)cc1 (stereo partly shown) [Compound 153]
7 | 150 nM | COc1cc(C(=O)C(=O)N2C3CCCC2C2=CN(CC4CC4)C(=O)CN2C3=O)cc(OC)c1OC (stereo not shown) [Compound 122]
8 | 4000 nM | COCOC1(C(=O)C(=O)N2C3CCC[C@@H]2[C@@H]2Cc4cc(OC(F)(F)F)ccc4CN2C3=O)CCCC1 [Compound 141]
9 | 1200 nM | COc1cc(OC)cc(N2C=C3C4CCCC(C(=O)N3CC2=O)N4C(=O)C(=O)C(C)(C)c2ccccc2)c1 (stereo not shown) [Compound 155]
10 | 355 nM | COc1cc(C(=O)C(=O)N2C3CCCC2C(=O)N(Cc2ccc4ccccc4c2)C3)cc(OC)c1OC (stereo not shown) [Compound 139]
11 | 27 nM | COc1cccc2c1CCN1C(=O)C3CCCC(C21)N3C(=O)C(=O)c1cc(OC)c(OC)c(OC)c1 (stereo not shown) [Compound 12]

Continued, molecule first:

Row | Compound | Ki
12 | CC(=O)OCC1(C(=O)C(=O)N2C3CCCC2C2=CN(CC4CC4)C(=O)CN2C3=O)CCCC1 (stereo not shown) [Compound 124] | 380 nM
13 | COc1ccc2c(c1)C1C3CCCC(C(=O)N1CC2)N3C(=O)C(=O)C1(COC(C)=O)CCCC1 (stereo not shown) [Compound 82] | 3000 nM
14 | COCCOC1(C(=O)C(=O)N2C3CCCC2C(=O)N(CCCCc2ccccc2)C3)CCCC1 (stereo not shown) [Compound 98] | 772 nM
15 | CC(=O)OCC(C)(C)C(=O)C(=O)N1C2CCCC1C(=O)N(CCCCc1ccccc1)C2 (stereo not shown) [Compound 60] | 3000 nM
16 | COCC(=O)OC1(C(=O)C(=O)N2C3CCCC2C2=CN(C4CCCC4)C(=O)CN2C3=O)CCCC1 (stereo not shown) [Compound 145] | 1700 nM
17 | COc1cc(C(=O)C(=O)N2C3CCCC2C2OCC(COCc4ccccc4)N2C3=O)cc(OC)c1OC (stereo not shown) [Compound 42] | 2200 nM
18 | O=C1C2CCCC(CN1CCOCc1ccccc1)N2C(=O)C(=O)C12CC3CC(CC(C3)C1)C2 (stereo not shown) [Compound 40] | 690 nM
19 | CCC(C)(C)C(=O)C(=O)N1C2CCCC1C(=O)N(C1CCCC1)C2 (stereo not shown) [Compound 69] | 33000 nM
20 | COCC(=O)OCC1(C(=O)C(=O)N2C3CCCC2C(=O)N(CCCCc2ccccc2)C3)CCCC1 (stereo not shown) [Compound 84] | 134 nM
21 | COc1cc(C(=O)C(=O)N2C3CCCC2C(=O)N([C@H]2CCC[C@@H]2OCc2ccccc2)C3)cc(OC)c1OC (stereo partly shown) [Compound 71] | 4700 nM
22 | COc1cc(C(=O)C(=O)N2C3CCCC2C(=O)N(C2CCCC2)C3=O)cc(OC)c1OC [Compound 41] | 5800 nM
23 | COCOCC1(C(=O)C(=O)N2C3CCCC2C2=CN(C4CCCC4)C(=O)CN2C3=O)CCCC1 (stereo not shown) [Compound 152] | 2800 nM
24 | C=CCC(CC=C)C(=O)OC[C@@H](CN1CC2CCCC(C1=O)N2C(=O)C(=O)C1(COC(C)=O)CCCC1)OCc1ccccc1 (stereo partly shown) [Compound 109] | 49 nM
25 | C=CCC(CC=C)C(=O)OC[C@@H](CN1CC2CCCC(C1=O)N2C(=O)C(=O)C1(COC(=O)COC)CCCC1)OCc1ccccc1 (stereo partly shown) [Compound 108] | 61 nM
26 | CCC(CC)(COCOC)C(=O)C(=O)N1C2CCCC1C(=O)N(CCCCc1ccccc1)C2 (stereo not shown) [Compound 83] | 860 nM
27 | CCCC(CCC)C(=O)OC[C@H](CN1CC2CCCC(C1=O)N2C(=O)C(=O)c1cc(OC)c(OC)c(OC)c1)OCc1ccccc1 (stereo partly shown) [Compound 47] | 200 nM
28 | C=CCC(CC=C)C(=O)OC[C@H](CN1CC2CCCC(C1=O)N2C(=O)C(=O)C(C)(C)CC)OCc1ccccc1 (stereo partly shown) [Compound 70] | 890 nM
